Publication PMC11784013, “Potassium molybdate blocks APN-dependent coronavirus entry by degrading receptor via PIK3C3-mediated autophagy” (Journal of Virology, 2024)

Test system: autophagy markers P62 and LC3
Experiment: Autophagy markers P62 and LC3 in ST cells (western blot)
Assay type: cell-based, swine
Conditions: PM 10 mM; for LC3 (LC3-Ⅱ) level, western blot, relative to WT without PM (=1) / P62 level, western blot, relative to WT without PM (=1): PRCV 0.1 MOI, 16 h
Protocol: Fig 6 PM degrades APN by autophagy-lysosome pathway. (A) ST cells were treated with PM (10 mM) and infected with TGEV (0.1 MOI) in the presence and absence of MG132 (20 µM), 3-MA (20 mM), and Z-VAD-FMK (20 µM) for 16 h. The APN expression and TGEV N were detected by western blot. (B) ST cells were treated with PM (10 mM) at 2, 4, 8, and 16 h, autophagy markers P62 and LC3, and APN were measured by western blot. (C) ST cells were transfected with RFP-EGFP-LC3B for 12 h and then treated with PM (10 mM) or H2O for 36 h. The fluorescence of GFP and RFP was detected by confocal microscopy, scale bar: 5 µm. (D) Quantification of autophagosomes (Merge) and autolysosomes (RFP) from C using Image J software. (E) ST cells were treated with PM or H2O for 24 h. The autophagosomes (yellow arrow) and autolysosomes (asterisk) were detected by transmission electron microscope, scale bar: 2 µm. (F) The number of autophagosomes (yellow arrow) and autolysosomes (asterisk) was quantified. All western blot results were calculated by Image J. Results are presented as mean ± SD of data from three independent experiments. ***, P ≤ 0.001.
Cotransfected cells were washed with cold PBS twice and lysed with NP40 lysis buffer (Beyotime, China, P0013F) supplemented with 1 mM PMSF (Beyotime, China, ST506) and phosphatase inhibitors (Beyotime, China, P1096). Lysis buffer containing cells was added to 20 µL of protein A+G agarose beads (Beyotime, China, P2055) and IgG (Santa Cruz, USA, 2025) on a rotating device for 4 h at 4°C to remove nonspecific proteins, after which the mixture was centrifuged at 2,500 rpm for 5 min. The supernatant was harvested, and anti-Flag/Myc/His/IgG antibodies were added to the samples on a rocking platform overnight at 4°C. Subsequently, 40 µL of protein A+G agarose beads were added to the supernatant containing the antibody, which was incubated for 4 h at 4°C on a rotating device. After washing with lysis buffer three times, the immunoprecipitates were collected by centrifugation, and the supernatant was discarded. Immunoprecipitated proteins were detected by western blotting. For the western blot, the proteins were separated by SDS‒PAGE and transferred onto a PVDF membrane (GE, USA, 10600023). The membranes were blocked in 5% nonfat milk at room temperature for 2 h and then incubated with specific primary antibodies overnight. Subsequently, the membrane was incubated with the secondary antibody for 1 h at room temperature. Finally, the proteins on the membranes were visualized with WesternBright ECL (Advansta, USA, K-12045-D50).
Fig. S8. PM inhibits PRCV infection by degrading APN via PIK3C3-mediated autophagy. (A-C) WT ST cells and PIK3C3 KO ST cells were treated with PM (10 mM) and infected with PRCV (0.1 MOI) for 16 h. Then the APN, PIK3C3, ATG14, BECN1, P62, PRCV N and LC3 were detected by western blot (A), and viral titers and PRCV N mRNA level were determined by TCID50 (B) and RT-qPCR (C) . (D-F) WT ST cells and PIK3C3 KO ST cells transfected with pCMV-Myc and pCMV-Myc-PIK3C3 respectively for 24 h were treated with PM (10 mM) and infected with PRCV (0.1 MOI) for 16 h. The APN, PIK3C3, P62, PRCV N and LC3 were determined by western blot (D). TCID50 (E) and RT-qPCR (F) were performed to detect viral titers and PRCV N m RNA level. All western blot results were calculated by Image J. Results are presented as mean ± SD of data from three independent experiments (also on this page, place not known: 6 8 10 12 Viral load(log copies/ul) *** 2 4 6 8 log10 TCID50/ml *** 6 8 10 12 + Viral load(log copies/ul) PIK3C3-Myc + - + + + *** *** 2 4 6 8 log10 TCID50/ml *** + + + + PIK3C3-Myc - - - + - + + + *** WT KO PM (C). WT KO PM PRCV PM - + + PRCV + + + WT PIK3C3 KO PIK3C3 PRCV PIK3C3-Myc - - - + PM - + + + PRCV + + + + WT PIK3C3 KO 0 0) […]

[1] = Fig. S8D, PIK3C3 KO ST cells with PIK3C3-Myc
[2] = Fig. S8D, PIK3C3 KO ST cells without PIK3C3-Myc
[3] = Fig. S8D, WT ST cells with pCMV-Myc

SMILES: [K+].[K+].[O]=[Mo](=[O])([O-])[O-] [PM, potassium molybdate]
- LC3 (LC3-Ⅱ) level, western blot, relative to WT without PM (=1) (Fig. S8A, PIK3C3 KO ST cells): 0.95
- P62 level, western blot, relative to WT without PM (=1) (Fig. S8A, PIK3C3 KO ST cells): 0.83
- LC3 (LC3-Ⅱ) level, western blot, relative to WT without PM (=1) (Fig. S8A, WT ST cells): 3.42
- P62 level, western blot, relative to WT without PM (=1) (Fig. S8A, WT ST cells): 0.16
- LC3 (LC3-Ⅱ) level, western blot, relative to WT without PM (=1) [1]: 3.45
- P62 level, western blot, relative to WT without PM (=1) [1]: 0.27
- LC3 (LC3-Ⅱ) level, western blot, relative to WT without PM (=1) [2]: 1.12
- P62 level, western blot, relative to WT without PM (=1) [2]: 0.91
- LC3 (LC3-Ⅱ) level, western blot, relative to WT without PM (=1) [3]: 3.61
- P62 level, western blot, relative to WT without PM (=1) [3]: 0.26
- LC3-II generation from LC3-I (ST cells, 2-16 h, western blot): more of the autophagosome protein LC3-II was generated
- p62 level (ST cells, 2-16 h, western blot): p62 was consumed
